Data reported in publication PMC8010095, “Discovery of novel antituberculosis agents among 3-phenyl-5-(1-phenyl-1H-[1,2,3]triazol-4-yl)-[1,2,4]oxadiazole derivatives targeting aminoacyl-tRNA synthetases” (Scientific Reports, 2021).

Legend:
[1] = test system: M. tuberculosis mono-resistant strains; assay: microbe, parasite or virus in culture; assay type: cell-based
[2] = test system: isoniazid-resistant H37Rv (katG^del) (MS015); assay: microbe, parasite or virus in culture; assay type: cell-based; conditions: > 80% reduction in growth; screened at 20, 2 and 0.2 mg/L; 7H9 complete medium
[3] = test system: rifampin-resistant strain H37Rv (rpoB^S450L) (ATCC #35,838); assay type: cell-based, Mycobacterium tuberculosis
[4] = test system: moxifloxacin-resistant strain H37Rv (gyrA^D94K) (MOX3); assay type: cell-based, Mycobacterium tuberculosis

Structure (SMILES) | growth inhibition cutoff [1] | Growth inhibition cutoff, H37Rv (katG^del) [2] | Growth inhibition cutoff, H37Rv (rpoB^S450L) [3] | Growth inhibition cutoff, H37Rv (gyrA^D94K) [4]
COc1cccc(-n2nnc(-c3nc(-c4ccc(F)cc4)no3)c2N)c1 [Compound 20] | 5.7 to 57 µM | > 20 mg/L | 2 to 20 mg/L | 2 to 20 mg/L
CCOc1ccc(-c2noc(-c3nnn(-c4ccccc4Cl)c3N)n2)cc1 [Compound 40] | 5.22 to 52.2 µM | > 20 mg/L | > 20 mg/L | 2 to 20 mg/L
